According to ChEMBL document CHEMBL5696443 (Clin Cancer Res, 2016):
Activity calls are given as the source filed them. The calls are words filed in the database; no cut-off is given here.

Assays:
[1] = biological target: Casein kinase I isoform delta (Homo sapiens) (UniProt P48730); test: Inhibition of human CK1delta at 1 uM using KRRRAL[pS]VASLPGL as substrate in presence of [gamma33P]-ATP by HotSpot assay relative to control
[2] = biological target: Casein kinase I isoform epsilon (Homo sapiens) (UniProt P49674); test: Inhibition of human CK1epsilon at 1 uM using KRRRAL[pS]VASLPGL as substrate in presence of [gamma33P]-ATP by HotSpot assay relative to control
[3] = biological target: Serine/threonine-protein kinase Chk2 (Homo sapiens, UniProt O96017, I157T); test: Inhibition of human CHEK2 I157T mutant using KKKVSRSGLYRSPSMPENLNRPR as substrate in presence of [gamma33P]-ATP by HotSpot assay
[4] = biological target: Serine/threonine-protein kinase Chk2 (Homo sapiens, UniProt O96017); test: Inhibition of human CHEK2 using KKKVSRSGLYRSPSMPENLNRPR as substrate in presence of [gamma33P]-ATP by HotSpot assay
[5] = biological target: Dual specificity protein kinase CLK2 (Homo sapiens, UniProt P49760); test: Inhibition of human CLK2 using MBP as substrate in presence of [gamma33P]-ATP by HotSpot assay
[6] = biological target: G protein-coupled receptor kinase 3 (Homo sapiens) (UniProt P35626); test: Inhibition of human ADRBK2 at 1 uM using casein as substrate in presence of [gamma33P]-ATP by HotSpot assay relative to control
[7] = biological target: RAC-alpha serine/threonine-protein kinase (Homo sapiens) (UniProt P31749); test: Inhibition of human AKT1 at 1 uM using KGSGSGRPRTSSFAEG as substrate in presence of [gamma33P]-ATP by HotSpot assay relative to control
[8] = species: Homo sapiens; test: Inhibition of human CDK2/CyclinA at 1 uM using RB protein as substrate in presence of [gamma33P]-ATP by HotSpot assay relative to control
[9] = biological target: Casein kinase II subunit alpha (Homo sapiens) (UniProt P68400); test: Inhibition of human CK2a at 1 uM using RRRDDDSDDD as substrate in presence of [gamma33P]-ATP by HotSpot assay relative to control
[10] = biological target: Casein kinase II subunit alpha' (Homo sapiens) (UniProt P19784); test: Inhibition of human CK2a2 at 1 uM using RRRDDDSDDD as substrate in presence of [gamma33P]-ATP by HotSpot assay relative to control
[11] = biological target: Death-associated protein kinase 1 (Homo sapiens) (UniProt P53355); test: Inhibition of human DAPK1 at 1 uM using KKLNRTLSFAEPG as substrate in presence of [gamma33P]-ATP by HotSpot assay relative to control
[12] = biological target: Homeodomain-interacting protein kinase 3 (Homo sapiens) (UniProt Q9H422); test: Inhibition of human HIPK3 at 1 uM using MBP as substrate in presence of [gamma33P]-ATP by HotSpot assay relative to control
[13] = biological target: Mitogen-activated protein kinase 3 (Homo sapiens) (UniProt P27361); test: Inhibition of human MAPK3 at 1 uM using MBP as substrate in presence of [gamma33P]-ATP by HotSpot assay relative to control
[14] = biological target: Myosin light chain kinase 2, skeletal/cardiac muscle (Homo sapiens) (UniProt Q9H1R3); test: Inhibition of human MYLK2 at 1 uM using KKLNRTLSFAEPG as substrate in presence of [gamma33P]-ATP by HotSpot assay relative to control
[15] = biological target: Serine/threonine-protein kinase PAK 4 (Homo sapiens) (UniProt O96013); test: Inhibition of human PAK4 at 1 uM using RRRLSFAEPG as substrate in presence of [gamma33P]-ATP by HotSpot assay relative to control
[16] = biological target: Platelet-derived growth factor receptor alpha (Homo sapiens) (UniProt P16234); test: Inhibition of human PDGFRalpha at 1 uM using poly (Glu, Tyr)4:1 as substrate in presence of [gamma33P]-ATP by HotSpot assay relative to control
[17] = system: Platelet-derived growth factor receptor alpha (Homo sapiens), P16234 [D842V]; test: Inhibition of human PDGFRalpha D842V mutant at 1 uM using poly (Glu, Tyr)4:1 as substrate in presence of [gamma33P]-ATP by HotSpot assay relative to control
[18] = biological target: [Pyruvate dehydrogenase (acetyl-transferring)] kinase isozyme 1, mitochondrial (Homo sapiens) (UniProt Q15118); test: Inhibition of human PDK1 at 1 uM using MBP as substrate in presence of [gamma33P]-ATP by HotSpot assay relative to control
[19] = biological target: Serine/threonine-protein kinase pim-1 (Homo sapiens) (UniProt P11309); test: Inhibition of human PIM1 at 1 uM using RSRHSSYPAGT as substrate in presence of [gamma33P]-ATP by HotSpot assay relative to control
[20] = biological target: Protein kinase C zeta type (Homo sapiens) (UniProt Q05513); test: Inhibition of human PRKCZ at 1 uM using ERMRPRKRQGSVRRRV as substrate in presence of [gamma33P]-ATP by HotSpot assay relative to control
[21] = biological target: Ribosomal protein S6 kinase alpha-4 (Homo sapiens) (UniProt O75676); test: Inhibition of human RPS6KA4 at 1 uM using GRPRTSSFAEG as substrate in presence of [gamma33P]-ATP by HotSpot assay relative to control
[22] = biological target: Ribosomal protein S6 kinase alpha-5 (Homo sapiens) (UniProt O75582); test: Inhibition of human RPS6KA5 at 1 uM using GRPRTSSFAEG as substrate in presence of [gamma33P]-ATP by HotSpot assay relative to control
[23] = biological target: SRSF protein kinase 1 (Homo sapiens) (UniProt Q96SB4); test: Inhibition of human SRPK1 at 1 uM using GRSRSRSRSR as substrate in presence of [gamma33P]-ATP by HotSpot assay relative to control
[24] = biological target: SRSF protein kinase 3 (Homo sapiens) (UniProt Q9UPE1); test: Inhibition of human SRPK3 at 1 uM using GRSRSRSRSR as substrate in presence of [gamma33P]-ATP by HotSpot assay relative to control
[25] = Average plasma concentration in CB-17/SCID mouse implanted with mouse BaF3 cells expressing EML4-ALK G1202R mutant at 25 mg/kg, po administered once daily for 7 days by LC-MS/MS analysis; assay type: ADME, organism-based; details: in vivo, 168 h, time 7 day
[26] = system: EML4-ALK (Homo sapiens), Q9UM73+Q9HC35 [UNDEFINED MUTATION]; details: BaF3, dose 500.0 nmol/L, time 3-5 weeks
[27] = in vitro; details: mouse, BaF3 cells

Homeodomain-interacting protein kinase 3 (Homo sapiens), sequence (Q9H422 whole entry, looked up): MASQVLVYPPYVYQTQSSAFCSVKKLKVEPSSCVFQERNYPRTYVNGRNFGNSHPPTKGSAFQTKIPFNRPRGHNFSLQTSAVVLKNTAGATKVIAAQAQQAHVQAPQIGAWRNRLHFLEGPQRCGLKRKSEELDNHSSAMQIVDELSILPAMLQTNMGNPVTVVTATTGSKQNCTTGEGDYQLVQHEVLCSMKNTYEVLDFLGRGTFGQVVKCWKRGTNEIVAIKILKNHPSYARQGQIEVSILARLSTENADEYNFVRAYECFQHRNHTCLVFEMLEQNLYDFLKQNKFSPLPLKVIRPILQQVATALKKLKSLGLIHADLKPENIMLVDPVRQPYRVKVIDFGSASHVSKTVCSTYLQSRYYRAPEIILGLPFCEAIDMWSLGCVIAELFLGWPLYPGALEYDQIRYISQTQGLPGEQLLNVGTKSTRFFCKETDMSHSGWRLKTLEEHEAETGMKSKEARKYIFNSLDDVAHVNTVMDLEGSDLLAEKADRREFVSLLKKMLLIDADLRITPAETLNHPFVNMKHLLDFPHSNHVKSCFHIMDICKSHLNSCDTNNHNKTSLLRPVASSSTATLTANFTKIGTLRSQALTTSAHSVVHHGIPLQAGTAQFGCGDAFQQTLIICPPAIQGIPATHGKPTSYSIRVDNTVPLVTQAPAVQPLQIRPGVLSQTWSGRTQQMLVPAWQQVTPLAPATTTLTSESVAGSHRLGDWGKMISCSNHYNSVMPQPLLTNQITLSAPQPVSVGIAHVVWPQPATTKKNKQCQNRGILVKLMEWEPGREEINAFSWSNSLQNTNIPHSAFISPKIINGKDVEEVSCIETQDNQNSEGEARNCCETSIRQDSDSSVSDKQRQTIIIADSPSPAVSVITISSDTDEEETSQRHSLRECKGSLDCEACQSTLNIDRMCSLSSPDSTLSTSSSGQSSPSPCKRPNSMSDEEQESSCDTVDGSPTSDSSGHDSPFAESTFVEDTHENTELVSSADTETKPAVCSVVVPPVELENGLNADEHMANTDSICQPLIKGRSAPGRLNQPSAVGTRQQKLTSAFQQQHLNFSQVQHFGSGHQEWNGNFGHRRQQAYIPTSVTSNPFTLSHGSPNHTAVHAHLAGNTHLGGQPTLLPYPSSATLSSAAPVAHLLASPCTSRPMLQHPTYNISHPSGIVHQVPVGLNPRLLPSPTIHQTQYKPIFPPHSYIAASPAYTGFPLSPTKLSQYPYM
Mitogen-activated protein kinase 3 (Homo sapiens), sequence (P27361 whole entry): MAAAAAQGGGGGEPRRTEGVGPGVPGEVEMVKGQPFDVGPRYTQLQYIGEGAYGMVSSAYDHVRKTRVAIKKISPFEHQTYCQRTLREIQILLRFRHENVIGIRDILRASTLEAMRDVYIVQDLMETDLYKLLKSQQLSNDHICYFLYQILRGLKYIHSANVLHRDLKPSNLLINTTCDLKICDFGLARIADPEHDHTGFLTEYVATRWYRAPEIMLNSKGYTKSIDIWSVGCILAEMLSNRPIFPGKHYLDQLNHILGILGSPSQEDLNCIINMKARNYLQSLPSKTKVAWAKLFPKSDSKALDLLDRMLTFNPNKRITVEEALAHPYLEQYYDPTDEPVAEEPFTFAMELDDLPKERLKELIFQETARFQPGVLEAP
SRSF protein kinase 1 (Homo sapiens), sequence (Q96SB4 whole entry): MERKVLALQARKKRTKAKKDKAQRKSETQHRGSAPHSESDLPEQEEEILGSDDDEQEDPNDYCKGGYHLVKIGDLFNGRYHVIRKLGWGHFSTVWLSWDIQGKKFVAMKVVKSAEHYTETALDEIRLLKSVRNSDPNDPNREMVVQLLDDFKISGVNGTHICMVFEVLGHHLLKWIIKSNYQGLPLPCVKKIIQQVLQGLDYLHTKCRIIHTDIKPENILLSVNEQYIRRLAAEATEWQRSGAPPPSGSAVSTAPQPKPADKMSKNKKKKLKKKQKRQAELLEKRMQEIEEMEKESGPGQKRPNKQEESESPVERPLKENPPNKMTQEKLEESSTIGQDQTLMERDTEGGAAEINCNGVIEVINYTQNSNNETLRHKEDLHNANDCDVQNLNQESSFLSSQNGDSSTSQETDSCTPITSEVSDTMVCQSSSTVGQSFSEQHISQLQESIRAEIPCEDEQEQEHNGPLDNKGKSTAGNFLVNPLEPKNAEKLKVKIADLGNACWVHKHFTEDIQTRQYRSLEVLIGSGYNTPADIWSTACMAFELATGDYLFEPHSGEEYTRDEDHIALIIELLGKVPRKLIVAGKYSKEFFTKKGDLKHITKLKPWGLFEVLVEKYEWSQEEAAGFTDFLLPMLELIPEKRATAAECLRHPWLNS
Casein kinase II subunit alpha (Homo sapiens), sequence (P68400 whole entry, looked up): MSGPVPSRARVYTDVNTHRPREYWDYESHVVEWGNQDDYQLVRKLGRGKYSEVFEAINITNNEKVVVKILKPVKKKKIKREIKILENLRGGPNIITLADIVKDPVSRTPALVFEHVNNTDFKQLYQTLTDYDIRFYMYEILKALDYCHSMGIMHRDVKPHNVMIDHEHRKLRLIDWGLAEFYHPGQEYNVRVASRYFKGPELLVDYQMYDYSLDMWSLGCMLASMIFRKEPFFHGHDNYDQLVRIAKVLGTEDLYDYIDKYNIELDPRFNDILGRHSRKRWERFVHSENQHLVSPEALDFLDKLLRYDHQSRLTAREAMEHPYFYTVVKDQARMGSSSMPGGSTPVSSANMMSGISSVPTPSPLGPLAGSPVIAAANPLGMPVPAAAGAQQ
Death-associated protein kinase 1 (Homo sapiens), sequence (P53355 whole entry, looked up): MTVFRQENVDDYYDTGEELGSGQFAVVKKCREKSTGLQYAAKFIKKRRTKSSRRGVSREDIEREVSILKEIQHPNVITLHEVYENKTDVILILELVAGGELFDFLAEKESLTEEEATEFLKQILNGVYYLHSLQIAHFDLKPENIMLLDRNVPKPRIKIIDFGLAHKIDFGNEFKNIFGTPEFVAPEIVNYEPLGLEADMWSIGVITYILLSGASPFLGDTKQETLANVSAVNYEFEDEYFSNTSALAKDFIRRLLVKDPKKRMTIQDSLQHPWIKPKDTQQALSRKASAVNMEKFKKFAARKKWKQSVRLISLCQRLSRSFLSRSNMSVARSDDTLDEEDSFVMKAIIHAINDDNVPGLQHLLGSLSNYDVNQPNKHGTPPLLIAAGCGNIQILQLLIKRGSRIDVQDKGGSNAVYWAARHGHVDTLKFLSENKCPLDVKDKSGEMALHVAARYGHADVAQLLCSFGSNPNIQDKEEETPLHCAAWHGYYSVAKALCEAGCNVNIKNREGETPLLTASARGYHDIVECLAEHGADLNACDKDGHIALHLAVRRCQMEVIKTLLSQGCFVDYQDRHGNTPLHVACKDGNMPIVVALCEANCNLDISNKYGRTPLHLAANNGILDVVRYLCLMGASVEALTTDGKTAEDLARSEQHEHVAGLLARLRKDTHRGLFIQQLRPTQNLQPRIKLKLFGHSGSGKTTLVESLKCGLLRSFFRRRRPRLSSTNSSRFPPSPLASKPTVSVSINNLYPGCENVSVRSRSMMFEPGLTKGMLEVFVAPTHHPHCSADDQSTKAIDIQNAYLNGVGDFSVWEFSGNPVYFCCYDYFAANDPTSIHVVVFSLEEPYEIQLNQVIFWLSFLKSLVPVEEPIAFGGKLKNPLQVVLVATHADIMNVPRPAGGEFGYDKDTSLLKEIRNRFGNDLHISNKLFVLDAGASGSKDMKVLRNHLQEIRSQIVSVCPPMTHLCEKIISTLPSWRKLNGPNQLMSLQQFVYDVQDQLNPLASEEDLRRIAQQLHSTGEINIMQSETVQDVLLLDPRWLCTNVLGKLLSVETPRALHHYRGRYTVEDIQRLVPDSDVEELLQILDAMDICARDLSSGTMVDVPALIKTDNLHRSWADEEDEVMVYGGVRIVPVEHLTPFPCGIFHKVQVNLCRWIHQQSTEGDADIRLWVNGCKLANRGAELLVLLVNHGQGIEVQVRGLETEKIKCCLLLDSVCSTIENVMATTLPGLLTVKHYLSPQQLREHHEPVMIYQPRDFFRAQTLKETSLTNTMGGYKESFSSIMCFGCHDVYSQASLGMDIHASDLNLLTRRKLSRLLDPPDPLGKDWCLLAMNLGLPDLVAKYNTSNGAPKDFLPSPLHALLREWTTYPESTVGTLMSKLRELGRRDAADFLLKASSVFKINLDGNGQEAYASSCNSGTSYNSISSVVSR
Casein kinase II subunit alpha' (Homo sapiens), sequence (P19784 whole entry, looked up): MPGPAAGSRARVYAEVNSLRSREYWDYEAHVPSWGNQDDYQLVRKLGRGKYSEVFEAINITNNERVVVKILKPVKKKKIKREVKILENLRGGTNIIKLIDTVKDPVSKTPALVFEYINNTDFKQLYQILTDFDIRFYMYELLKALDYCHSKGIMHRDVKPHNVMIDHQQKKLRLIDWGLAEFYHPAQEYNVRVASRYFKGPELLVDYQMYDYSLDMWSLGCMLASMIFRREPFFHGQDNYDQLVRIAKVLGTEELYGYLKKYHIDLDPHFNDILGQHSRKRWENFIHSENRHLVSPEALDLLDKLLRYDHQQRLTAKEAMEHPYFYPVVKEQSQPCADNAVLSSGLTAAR
Casein kinase I isoform delta (Homo sapiens), sequence (P48730 whole entry, looked up, canonical isoform): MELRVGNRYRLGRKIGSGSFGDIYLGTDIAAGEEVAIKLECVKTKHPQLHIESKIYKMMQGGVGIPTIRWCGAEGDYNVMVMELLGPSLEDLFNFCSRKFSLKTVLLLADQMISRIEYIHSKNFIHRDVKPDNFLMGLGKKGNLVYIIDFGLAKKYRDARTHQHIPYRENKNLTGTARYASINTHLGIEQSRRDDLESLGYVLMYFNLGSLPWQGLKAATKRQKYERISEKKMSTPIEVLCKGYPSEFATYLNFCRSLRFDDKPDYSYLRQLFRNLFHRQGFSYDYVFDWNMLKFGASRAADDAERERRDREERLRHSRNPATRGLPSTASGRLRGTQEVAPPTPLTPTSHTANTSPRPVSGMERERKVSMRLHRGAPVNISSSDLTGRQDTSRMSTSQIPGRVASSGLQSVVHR

## COc1cc(N2CCC(N3CCN(C)CC3)CC2)ccc1Nc1ncc(Cl)c(Nc2ccccc2P(C)(C)=O)n1 [BRIGATINIB]
[1]
  inhibition: < 90%
[2]
  inhibition: < 90%
[3]
  IC50: 5.6 nM
[4]
  IC50: 6.5 nM
[5]
  IC50: 240 nM
[6]
  inhibition: < 90%
[7]
  inhibition: < 90%
[8]
  inhibition: < 90%
[9]
  inhibition: < 90%
[10]
  inhibition: < 90%
[11]
  inhibition: < 90%
[12]
  inhibition: < 90%
[13]
  inhibition: < 90%
[14]
  inhibition: < 90%
[15]
  inhibition: < 90%
[16]
  inhibition: < 90%
[17]
  inhibition: < 90%
[18]
  inhibition: < 90%
[19]
  inhibition: < 90%
[20]
  inhibition: < 90%
[21]
  inhibition: < 90%
[22]
  inhibition: < 90%
[23]
  inhibition: < 90%
[24]
  inhibition: < 90%
[25]
  Cave: 2546 nM
[26]
  inhibition: Active
[27]
  IC50 at 72 h: 3210 nM
